In brackets after ≈: the same amount, converted by molar mass. Where two headings read alike, the source gives them in different places.
Legend:
JAK1-JH2 domain = biological target: T1, JAK1-JH2 domain (Homo sapiens, UniProt P23458); assay: Binding activity test for JAK1 JH2 domain (Tb-antibody/tracer FRET)
T1 construct: JAK1-JH2 domain or TYK2-JH2 domain enzyme
Description: Binding Activity test for JH2 domain of JAK and TYK2
75 nL DMSO for high control and low control.
For low control, add 5 μL/well assay buffer. […] After enzyme system prepared, add 5 μL of Tb-antibody solution into each wells of assay plate. […] After Tb-antibody added, also add 5 μL of tracer into the assay plate. […] Incubate for 60 mins at 25° C. firstly and then continue to incubate the plate at 4° C. overnight. Read by envision in FRET mode. The Luminescence value was recorded by a multi-label reader Envision (PerkinElmer). Inhibition Rate was calculated relative to vehicle (DMSO) treated control wells using following formula:
wherein • RLU_compound=the relative light unit of cells treated with test compounds • RLU_low control=the relative light unit of medium with DMSO only • RLU_high control=the relative light unit of cells treated with DMSO only

TYK2-JH2 domain = biological target: T2, TYK2-JH2 domain (Homo sapiens, UniProt P29597); assay: Binding activity test for TYK2 JH2 domain (Tb-antibody/tracer FRET); conditions: for JAK1/TYK2 selectivity: ratio of JAK1 JH2 to TYK2 JH2 binding IC50
T2 construct: JAK1-JH2 domain or TYK2-JH2 domain enzyme
T2 sequence (P29597 589-875 limits assumed): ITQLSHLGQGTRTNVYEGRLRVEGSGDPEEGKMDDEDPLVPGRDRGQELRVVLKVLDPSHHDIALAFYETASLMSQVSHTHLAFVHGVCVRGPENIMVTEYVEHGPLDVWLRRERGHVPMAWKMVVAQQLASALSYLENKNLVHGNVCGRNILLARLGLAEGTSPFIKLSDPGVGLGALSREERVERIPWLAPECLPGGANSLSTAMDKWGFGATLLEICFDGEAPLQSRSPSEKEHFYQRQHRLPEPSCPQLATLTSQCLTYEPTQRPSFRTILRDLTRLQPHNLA

[1] = Microsomal metabolic stability assay; format: in vitro ADME, human; conditions: human, liver microsomes, pH 7.4, human liver microsomes 0.5 mg/mL; for microsomal CLint at 1 µM: read-out: Human LM Clint; for half-life at 1 µM: read-out: Human LM T½
Description: Microsomal Metabolic Stability Assay
Microsomes were pre-incubated with test compound or control compounds for 5 min at 37° C. in 100 mM potassium phosphate buffer, pH 7.4, 1.0 mM EDTA. The reaction was initiated by addition of 15 μL of the NADPH regenerating system to 30 μL of each incubation mixture per time point. The final incubation condition was composed of 0.5 mg/mL microsomal protein, 1 μM test article/positive control, 2 mM NADPH. The 0-minute samples were prepared by addition of a 30 μL aliquot of each incubation mixture to 135 μL quench reagent to precipitate proteins. And then a 15 μL aliquot of the NADPH regenerating system was added. At 5, 15, 30 and 45 minutes, the reaction will be stopped by the addition of cold acetonitrile solution containing internal standard. The samples taken at all time points were centrifuged at 5000×g for 15 minutes. 50 μL of supernatant are taken into 96-well assay plates pre-added with 50 μL ultrapure water, and then analyzed by LC/MS/MS.
Concentrations of test articles, control compounds in the samples were determined by using LC/MS/MS method. Plotting of the chromatograms and peak area integrations are carried out by Analyst (AB Sciex).
In the determination of the in vitro elimination constant (ke) of the control compounds, the analyte/internal standard peak area ratios will be converted to percentage remaining (% Remaining) with the following equation:
The CLint of microsomes was calculated using the formula: CLint (mic)=0.693/T1/2/mg microsome protein per mL. The slope was measured by the natural logarithm of the percentage of the residual compound and time, T1/2 was calculated according to the following formula.

Kinetic solubility = format: physicochemical; conditions: aqueous buffer, 100 mM pH 7.4 phosphate buffer, 1% DMSO, room temperature, read-out: Kinetics Solubility_PBS7.4
Description: Aliquots of 8 μL of reference and test compound stock solutions (10 mM/5 mM) are added into 792 μL of 100 mM pH 7.4 phosphate buffer. The final DMSO concentration is 1%. Sample tubes are shaken for 2 hours at 1000 rpm at room temperature. Samples are centrifuged at 12000 rpm for 10 min to precipitate un-dissolved particles. And transfer the supernatants to a new tube or plate. Add 5 μL of samples (no diluted, 10 times diluted and 100 times diluted) and standard curve samples to 95 μL of ACN containing IS for LC-MS/MS analysis.

[2] = read-out: JAK1 JH2 Binding IC50
[3] = read-out: TYK2 JH2 Binding IC50

T1 sequence (P23458 583-855 limits assumed): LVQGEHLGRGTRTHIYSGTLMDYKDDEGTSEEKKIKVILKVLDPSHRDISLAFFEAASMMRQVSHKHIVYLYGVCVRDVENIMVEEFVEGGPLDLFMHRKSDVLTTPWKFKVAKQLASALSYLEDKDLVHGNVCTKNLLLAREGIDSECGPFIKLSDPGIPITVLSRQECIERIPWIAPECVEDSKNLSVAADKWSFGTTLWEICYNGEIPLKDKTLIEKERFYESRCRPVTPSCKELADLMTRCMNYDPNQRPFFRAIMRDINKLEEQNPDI

SMILES | IC50 (JAK1-JH2 domain; [2]) [nM] | JAK1/TYK2 selectivity (TYK2-JH2 domain) | IC50 (TYK2-JH2 domain; [3]) [nM] | microsomal CLint at 1 µM [1] [µL/min/mg] | half-life at 1 µM [1] [min] | IC50 (JAK1-JH2 domain; JAK1 JH2 Binding IC50(nM)) [nM] | IC50 (TYK2-JH2 domain; TYK2 JH2 Binding IC50(nM)) [nM] | solubility kinetic at 2 h (Kinetic solubility) [µM]
[2H]C([2H])([2H])NC(=O)c1cnc(NC(=O)C2CC2)cc1Nc1ncn2ncc(C(O)C(F)(F)F)c2c1OC (centres unmarked) [Example 30, 6-(Cyclopropanecarboxamido)-4-((4-methoxy-3-(2,2,2-trifluoro-1-hydroxyethyl)pyrazolo[1,5-c]pyrimidin-5-yl)amino)-N-(methyl-d3)nicotinamide] | 110 | 822.4 | 0.134 |  |  |  |  | 
[2H]C([2H])([2H])NC(=O)c1cnc(NC(=O)NCC)cc1Nc1ncc2cnn(CC(C)(F)F)c2c1OC [Example 32, 4-((1-(2,2-Difluoropropyl)-7-methoxy-1H-pyrazolo[4,3-c]pyridin-6-yl)amino)-6-(3-ethylureido)-N-(methyl-d3)nicotinamide] | > 298 | >175.4 | 1.7 |  |  |  |  | 
[2H]C([2H])([2H])NC(=O)c1cnc(Nc2ccc(N3CCOCC3)cn2)cc1Nc1ccn2ncc(C#N)c2c1OC [Example 6, 4-((3-Cyano-4-methoxypyrazolo[1,5-a]pyridin-5-yl)amino)-N-(methyl-d3)-6-((5-morpholinopyridin-2-yl)amino)nicotinamide] | 0.703 | 4.48 | 0.157 | 28.4 | 48.8 |  |  | 
[2H]C([2H])([2H])NC(=O)c1cnc(NC(=O)C2CC2)cc1Nc1ncc2ncn(CC(F)(F)F)c2c1OC [Example 25, 6-(Cyclopropanecarboxamido)-4-((7-methoxy-1-(2,2,2-trifluoroethyl)-1H-imidazo[4,5-c]pyridin-6-yl)amino)-N-(methyl-d3)nicotinamide] | 46.7 | 268.51 | 0.174 |  |  |  |  | 
COC(=O)c1cnc(NC(=O)C2CC2)cc1Nc1ncn2ncc(C#N)c2c1OC [Example 19, Methyl 4-((3-cyano-4-methoxypyrazolo[1,5-c]pyrimidin-5-yl)amino)-6-(cyclopropanecarboxamido)nicotinate] | 22.1 | 13.51 | 1.63 |  |  |  |  | 
[2H]C([2H])([2H])NC(=O)c1cnc(NC(=O)C2CC2)cc1Nc1ncc2cnn(COCC[Si](C)(C)C)c2c1OC [Example 1, 6-(Cyclopropanecarboxamido)-4-((7-methoxy-1-((2-(trimethylsilyl)ethoxy)methyl)-1H-pyrazolo[4,3-c]pyridin-6-yl)amino)-N-(methyl-d3)nicotinamide] |  | >32.07 |  |  |  | > 298 | 9.31 | 
[2H]C([2H])([2H])NC(=O)c1cnc(NC(=O)[C@@H]2C[C@@H]2F)cc1Nc1ncc2cnn(CC(C)(F)F)c2c1OC [Example 8, 4-((1-(2,2-Difluoropropyl)-7-methoxy-1H-pyrazolo[4,3-c]pyridin-6-yl)amino)-6-((1S,2S)-2-fluorocyclopropane-1-carboxamido)-N-(methyl-d3)nicotinamide] | 162 | 561.99 | 0.288 |  |  |  |  | 
[2H]C([2H])([2H])NC(=O)c1cnc(Nc2cc(CN3CCOCC3)n(C)n2)cc1Nc1ccc2cnn(CC#N)c2c1OC [Example 12, 4-((1-(Cyanomethyl)-7-methoxy-1H-indazol-6-yl)amino)-N-(methyl-d3)-6-((1-methyl-5-(morpholinomethyl)-1H-pyrazol-3-yl)amino)nicotinamide] | 1.62 | 8.55 | 0.189 |  |  |  |  | 7.21 (≈ 3.85 µg/mL)
[2H]C([2H])([2H])NC(=O)c1cnc(NC(=O)C2CC2)cc1Nc1ccc2ncn(CC(F)(F)F)c2c1OC [Example 27, 6-(Cyclopropanecarboxamido)-4-((7-methoxy-1-(2,2,2-trifluoroethyl)-1H-benzo[d]imidazol-6-yl)amino)-N-(methyl-d3)nicotinamide] | > 298 | >107.8 | 2.77 |  |  |  |  | 44.2 (≈ 20.6 µg/mL)
[2H]C([2H])([2H])NC(=O)c1cnc(NC(=O)[C@@H]2C[C@@H]2F)cc1Nc1ncn2ncc(C(C)C(F)(F)F)c2c1OC (stereo partly drawn) [Example 13, 6-((1S,2S)-2-fluorocyclopropane-1-carboxamido)-4-((4-methoxy-3-(1,1,1-trifluoropropan-2-yl)pyrazolo[1,5-c]pyrimidin-5-yl)amino)-N-(methyl-d3)nicotinamide] | > 298 | >175.38 | 1.7 | 25.4 | 54.5 |  |  | 
CCC(=O)c1cnc(NC(=O)C2CC2)cc1Nc1ccc2cn[nH]c2c1OC [Example 34, N-(4-((7-methoxy-1H-indazol-6-yl)amino)-5-propionylpyridin-2-yl)cyclopropanecarboxamide] | 31.7 | 8.0 | 3.94 | 480 | 2.89 |  |  | 
[2H]C([2H])([2H])NC(=O)c1cnc(NC(=O)[C@H]2C[C@H]2F)cc1Nc1ncc2cnn(CC(C)(F)F)c2c1OC [Example 11, 4-((1-(2,2-Difluoropropyl)-7-methoxy-1H-pyrazolo[4,3-c]pyridin-6-yl)amino)-6-((1R,2R)-2-fluorocyclopropane-1-carboxamido)-N-(methyl-d3)nicotinamide] | 73.8 | 227.16 | 0.325 | 2.86 | 485 |  |  | 
[2H]C([2H])([2H])NC(=O)c1cnc(Nc2ccc(N3CCOCC3)cn2)nc1Nc1ccn2ncc(C#N)c2c1OC [Example 7, 4-((3-Cyano-4-methoxypyrazolo[1,5-a]pyridin-5-yl)amino)-N-(methyl-d)-2-((5-morpholinopyridin-2-yl)amino)pyrimidine-5-carboxamide] | 10.7 | 26.60 | 0.404 | 28.1 | 49.3 |  |  | 
COC(=O)c1cnc(NC(=O)C2CC2)cc1Nc1ncc2cnn(CC(C)(F)F)c2c1OC [Example 26, Methyl 6-(cyclopropanecarboxamido)-4-((1-(2,2-difluoropropyl)-7-methoxy-1H-pyrazolo[4,3-c]pyridin-6-yl)amino)nicotinate] | 115 | 443.32 | 0.26 |  |  |  |  | 
[2H]C([2H])([2H])NC(=O)c1cnc(Nc2ccc(F)cn2)cc1Nc1ncc2cnn(CC(C)(F)F)c2c1OC [Example 21, 4-((1-(2,2-Difluoropropyl)-7-methoxy-1H-pyrazolo[4,3-c]pyridin-6-yl)amino)-6-((5-fluoropyridin-2-yl)amino)-N-(methyl-d3)nicotinamide] | 140 | 353.07 | 0.396 | 16.3 | 84.8 |  |  | 
[2H]C([2H])([2H])NC(=O)c1cnc(NC(=O)NC)cc1Nc1ncc2cnn(CC(C)(F)F)c2c1OC [Example 33, 4-((1-(2,2-Difluoropropyl)-7-methoxy-1H-pyrazolo[4,3-c]pyridin-6-yl)amino)-N-(methyl-d3)-6-(3-methylureido)nicotinamide] | > 298 | >139.8 | 2.14 |  |  |  |  | 
[2H]C([2H])([2H])NC(=O)c1cnc(NC(=O)C2CC2)cc1Nc1ccc2ncn(CC(C)(F)F)c2c1OC [Example 31, 6-(Cyclopropanecarboxamido)-4-((1-(2,2-difluoropropyl)-7-methoxy-1H-benzo[d]imidazol-6-yl)amino)-N-(methyl-d3)nicotinamide] | 20.8 | 69.3 | 0.3 |  |  |  |  | 

From patent US20260284066A1, “TYK2 INHIBITORS AND COMPOSITIONS AND METHODS THEREOF” (LYNK PHARMACEUTICALS CO. LTD., priority 2023, published 2026)
